Each structure is given as a SMILES string.

Experiment [1] has as its target T1, PCPH (Sphingobium chlorophenolicum, UniProt P42535). Nature of the experiment: Substrate range of PCPH, oxidation determined by gas chromatography. The class given is biochemical, Flavobacterum sp. (ATCC 53874). Also noted: made in house; host or cells: E. coli strain DH5a (tac promoter vector). From the text:
Samples from the environment contain many other compounds which may be substrates for PCPH and therefore interfere with PCP biosensing. The substrate range of the PCPH enzyme was therefore investigated. The compounds tested as possible substrates were toluene, biphenyl, phenylcyclohexane, 1-phenylcyclohexene, diphenylmethane, bibenzyl and hexadecane, included as a model long-chain alkane.

The target in experiment [2] is T2, pentachlorophenol hydroxylase (PCPH) (Sphingobium chlorophenolicum, UniProt P42535).
T2 sequence (P42535 2-538): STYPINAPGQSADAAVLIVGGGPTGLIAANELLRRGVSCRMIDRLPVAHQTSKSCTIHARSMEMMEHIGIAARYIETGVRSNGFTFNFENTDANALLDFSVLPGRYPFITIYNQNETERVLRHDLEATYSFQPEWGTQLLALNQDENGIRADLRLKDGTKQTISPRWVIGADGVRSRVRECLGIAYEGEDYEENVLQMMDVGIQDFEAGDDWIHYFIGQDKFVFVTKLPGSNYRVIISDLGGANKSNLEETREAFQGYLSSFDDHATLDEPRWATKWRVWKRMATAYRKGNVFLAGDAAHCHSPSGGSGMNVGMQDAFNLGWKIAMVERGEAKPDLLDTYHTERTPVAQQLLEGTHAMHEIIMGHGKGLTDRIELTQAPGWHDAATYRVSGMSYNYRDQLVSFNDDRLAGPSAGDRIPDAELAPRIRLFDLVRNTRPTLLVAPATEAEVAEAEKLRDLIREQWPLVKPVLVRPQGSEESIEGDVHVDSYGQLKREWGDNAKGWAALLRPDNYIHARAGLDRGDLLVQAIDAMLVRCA
The following applies: earlier investigation of the substrate range (Orser and co-workers); cited from earlier work.

Experiment [3] concerns PCPH. Particulars: -800 mV, aerobic, after 30 mins; cyclic voltammetry and gas chromatography of the organic extract.
The target of experiment [4] is T1, PCPH. Nature of the experiment: PCP concentration-dependent catalytic current, immobilised PCPH electrode.

Regarding `C1=C(c2ccccc2)CCCC1` [1-phenylcyclohexene], in experiment [1], the “oxidised by PCPH (substrate or not)” value is listed as “None of the compounds except bibenzyl was oxidised by PCPH”.

Regarding `Oc1cccc(Cl)c1Cl` [2,3-dichlorophenol], the “substrate of PCPH (oxidised / attacked)” value in experiment [2] is recorded as “poor substrate”.

With `Oc1c(Cl)c(Cl)c(Cl)c(Cl)c1Cl` [PCP, pentachlorophenol], in experiment [2], the “substrate of PCPH (oxidised / attacked)” value is reported as “oxidised by PCPH”. The “product of electrochemically driven oxidation by PCPH” value in experiment [3] is “showed the presence of TeCH”. The “linear range of concentration dependence of the catalytic current” value in experiment [4] (PCPH 87 μM in the solution evaporated on the electrode, FIG. 1) was “ca. 8 μM”; in experiment [4] (PCPH 196 μM in the solution evaporated on the electrode, FIG. 2) it was “ca. 25 μM”.

With `c1ccccc1` [benzene], in experiment [2], the “substrate of PCPH (oxidised / attacked)” value was “not substrates”.

With `c1ccc(CCc2ccccc2)cc1` [bibenzyl], in experiment [1], the “oxidised by PCPH (substrate or not)” value is “a very small amount of product was detected”.

As for `c1ccc(-c2ccccc2)cc1` [biphenyl], in experiment [1], the “oxidised by PCPH (substrate or not)” value is on record as “None of the compounds except bibenzyl was oxidised by PCPH”.

In the case of `c1ccc(Cc2ccccc2)cc1` [diphenylmethane], the “oxidised by PCPH (substrate or not)” value in experiment [1] was “None of the compounds except bibenzyl was oxidised by PCPH”.

As for `CCCCCCCCCCCCCCCC` [hexadecane], the “oxidised by PCPH (substrate or not)” value in experiment [1] is listed as “None of the compounds except bibenzyl was oxidised by PCPH”.

Turning to `Clc1cc(Cl)c(Cl)c(Cl)c1Cl` [pentachlorobenzene], the “substrate of PCPH (oxidised / attacked)” value in experiment [2] is reported as “not”.

For the compound `c1ccc(C2CCCCC2)cc1` [phenylcyclohexane], in experiment [1], the “oxidised by PCPH (substrate or not)” value is recorded as “None of the compounds except bibenzyl was oxidised by PCPH”.

For the compound `Cc1ccccc1` [toluene], the “oxidised by PCPH (substrate or not)” value in experiment [1] was “None of the compounds except bibenzyl was oxidised by PCPH”.

These data come from patent US6511592B1, “Biosensor for pentachlorophenol” (ISIS Innovation Limited, priority 1998, dated 2003).
